Test results from patent US5141627A, “Chelators whose affinity for calcium ion is increased by illumination” (The Regents of the University of California, priority 1989, dated 1992).
Bridges are numbered along the chain shown (N, C = ends). Where no end group is shown, it is not given here.

Key:
[1] = Absorbance spectra of free and Ca2+-bound chelators; format: physicochemical
Experimental: (§1) The titration was done at 22° C. with 10 mL of 100 mM KCl, 10 mM K-MOPS, 10 mM K2 H.HEEDTA, and 14 […] diazo-2 as starting materials, adjusting the pH to 7.24, recording the spectrum, and then discarding 1.0 mL of this solution and replacing with 1.0 mL of 100 mM KCl, 10 mM K.MOPS, 10 mM KCa.HEEDTA, 14 μM diazo-2, readjusting the pH to 7.24, and recording the spectra, which was then in 9 mM K2H.HEEDTA. Subsequent iterations to reach n mM KCa.HEEDTA, (10-n) mM HEEDTA, n=2-10, were done by discarding 10.0/(11-n) mL and replacing with equal volumes of the 10mM KCa.HEEDTA, 14 μM diazo-2 stock. After n=10 had been reached to give free Ca^2+ between 10^-5 and 10^-4 M, addition of 1 mM CaCl2 had no further effect on the spectrum. For clarity only six spectra are including in the figure, n=0, 2, 4, 6, 8, and 10. Each spectrum is labeled with the calculated free [Ca^2+ ] imposed by the HEEDTA buffer, assuming a log effective stability constant of 5.55 at pH 7.24.
(§2) The phenylacetate was produced by irradiating a 30 μM solution of diazo-2 in 100 mM KCl, 10 mM Tris.HCl, 10 mM K2 H.HEEDTA, pH 8.40, with Spectroline lamp at 365 nm to completion. The titration was then performed as in A but the pH was maintained at 8.40, at which the calculated log effective stability is constant for HEEDTA was 6.60.
Proton magnetic resonance spectra (^1 H NMR) were recorded on a Varian EM-390 90-MHz spectrometer in CDCl3 unless otherwise noted, and the chemical shifts are given in δ values relative to tetramethylsilane. Ultraviolet (UV) absorbance spectra were recorded on a Cary 210 or a Perkin-Elmer Lambda Array 3840 spectrophotometer at 20°±2° C. Melting points are in Centigrade and are uncorrected. Elemental analyses were performed by the Microanalytical Laboratory in the Department of Chemistry, University of California, Berkeley, Calif.

[2] = Ca2+ affinity by UV spectra during titration of EGTA or HEEDTA buffers; format: binding
Experimental: as §1, §2
(§3) Ca^2+ -binding constants for chelators before and after photolysis were determined by monitoring UV spectra during titration of EGTA or HEEDTA buffers to varying free Ca^2+ levels.
Either the ratio of, for example, [Ca.EGTA] to free [EGTA] was adjusted at a constant pH, or the pH was varied while [Ca.EGTA]=[EGTA]. These two approaches gave equivalent answers for pH>7 whenever directly tested, because of the pH insensitivity of BAPTA-like ligands (see FIG. 1 legend for more details). The apparent dissociation constants of Ca.EGTA and Ca.HEEDTA were calculated as described by R. Y. Tsien (1980); see also R. Y. Tsien, et al. (1986), S. R. Adams, et al. (1980), Grynkiewicz, et al., (1985), and Jackson, et al. (1987).

[3] = Mg2+ affinity in Mg/EGTA buffers; format: binding; conditions: after photolysis; 0.1-0.15M ionic strength, pH 7.0-7.4, 20-23° C.; read-out: Kd (Mg2+), after photolysis
Experimental: as §3
Free [Mg^2+ ] was likewise controlled by Mg/EGTA buffers, assuming an apparent dissociation constant for the Mg.EGTA complex (including its monoprotonated form) of 6 mM at pH 7.60 in 0.1M ionic strength; see R. Y. Tsien, et al. (1986) and A. E. Martell, et al. (1974).

[4] = Quantum efficiency and completion of photolysis; format: physicochemical
Experimental: Spectra were obtained after 0, 2, 5, 9, 16, 28, 46, 80, 150, 285, 505 and 903 sec of 365-nm illumination at 7.82×10^- 9 einsteins cm^-2 s^-1 from Spectroline lamp. For clarity only the 0-, 9-, 28-, 46-, 80-, 150-, and 505-s spectra are reproduced herein. The 505- and 903-s spectra were identical, confirming completion of photolysis after those times. Solutions were at 22±2° C.
The method was as described in FIG. 1B except that the EGTA was replaced by 2 mM CaCl2, and spectra were measured after 0-, 50-, 100-, 203-, 412-, 840-, 1730-, 4080-, and 8000-s illumination. The last two spectra were identical, confirming completion. For clarity the 50- and 8000-s spectra are omitted.
The photolysis quantum efficiencies of diazo chelators were determined by alternately irradiating a buffered solution of the substrate with a known intensity of longwave UV light, and measuring the absorbance spectrum, in apparatus described by S. R. Adams, et al. (1988), supra.

[5] = Yield of high affinity chelator / low-affinity side product after photolysis; format: physicochemical
Experimental: Because of the direct conjugation of the dialkylamine moiety with the diazoketone group, diazo-2 has a large absorbance in the 350-400 nm range, which shifts 50 nm to shorter wavelengths on binding Ca^2+ (FIG. 1A). The dissociation constant for Ca^2+ is relatively high, at 2.2 μM, due to the electron withdrawing ability of the carbonyl group. Photolysis occurs at 365 nm with a quantum yield of 0.030. The peak at […] in zero Ca^2+ decreases to near baseline giving a spectrum similar to that of unsubstituted BAPTA, although a small peak remains at 355 nm (FIG. 1B). […] The reaction of diazo-2 with dilute aqueous acid should give the same product whose absorbance spectrum indeed matched that of the residual peak at 355 nm after photolysis in low Ca^2+. […] Once the extinction coefficient for the hydroxyacetyl derivative was known, the amount of the side product arising from photolysis is calculated to be about 10%.

[6] = test system: REF52 fibroblast cell; experiment: Intracellular free Ca2+ in REF52 fibroblasts on vasopressin stimulation and UV photolysis (fluo-3); format: cell-based, Fisher rat; conditions: 50 nM [arg8]-vasopressin
Source text: The tetraacetoxymethyl esters of diazo-2 and diazo-3 were synthesized. The acetoxymethyl (AM) groups mask the negative charges on the carboxylate functions, so the AM ester of diazo-2 and diazo-3 can easily diffuse across the cell membrane, which is largely impermeable to ions. Once inside the cell, non-specific esterases in the cell hydrolytically cleave the AM esters and restore diazo-2 and diazo-3 to their tetracarboxylate forms, which being polyanions, are trapped within the cell. […] Prior to the start of data acquisition (t=0), the REF52 fibroblast cell was loaded with diazo-2 and fluo-3. […] Its fluorescence quantum yield is enhanced about 40-fold by Ca^2+ binding, which occurs with a Kd of 400 nM.
Prior to the start of data acquisition, the REF52 fibroblast cell was loaded with fluo-3 and diazo-2 by incubation for 30 min at 25° C. DME medium containing 1 μM diazo-2/AM and 10 μM fluo-3/AM. Acquisition of fluo-3 fluorescence intensity images was begun at time 0. The fluorescence intensity data was converted to intracellular Ca^2+ concentrations using a calibration procedure previously described. The event markers correspond to 1) stimulating the cell with 50 nM [arg^8 ]-vasopressin,and 2) flashing the cell for 1 s with UV light.
The experimental conditions were the same as in (A) except that the cell wa loaded with fluo-3 and diazo-3 (instead of diazo-2) by incubation for 90 min at 25° C. in DME medium containing 10 μm fluo-3/AM and […] diazo-3/AM. The event markers correspond to 1) stimulating the cell with 50 nM [arg^8 ]-vasopressin, and 2) flashing the cell for 1 s of UV light.
For preliminary biological tests, Fisher rat embryo fibroblast of the REF52 cell line were cultured as described by J. P. Y. Kao, et al. (1989).
For testing diazo-2, REF52 cells were incubated for 30 min at 25° C. in Dulbecco's modified Eagle's medium, buffered at pH 7.4 with 20 mM HEPES and containing 1 μM diazo-2/AM and 10 μM fluo-3/AM. For control experiments using diazo-3, the cells were incubated for 90 min at 25° C. in DMEM, buffered to pH 7.4 with 20 mM HEPES and containing 1 μM diazo-3/AM and […] fluo-3/AM. After loading, the cells were gently washed, transferred into Hanks' Balanced Salt Solution containing 0.2 mM sulfinpyrazone to inhibit non-specific organic anion transport (see Tsien, 1989), and mounted on a 25° C. microscope stage for experimentation.
Flash photolysis of trapped cellular diazo-2 and the concomitant monitoring of intracellular free Ca^2+ concentration with fluo-3, a fluorescent Ca^2+ indicator, were performed using methodology and instrumentation described in A. Minta, et al (1989) and J. P. Y. Kao, et al. (1989). Briefly, output form a Xe arc lamp was passed through a monochromator to yield the 490 nm light used to probe the fluo-3 trapped intracellularly. The fluo-3 fluorescence images of cells were recorded using a SIT TV camera. Images were stored on a high-resolution monochrome laser disc recorder (Panasonic TQ-2028) for delayed processing. Photolyses were performed by briefly moving a chopper mirror to send broad-band UV from an XBO 75 W xenon arc lamp and UG-2 filter into the microscope instead of 490 nm fluo-3 excitation. The microscope objective (Nikon UV-CF, 40X) was chosen for its high UV transmission and numerical aperture (1.3). […] The same computer was used to analyze the fluorescence images acquired during the experiment.

## [N-]=[N+]=CC(=O)c1ccc(N(CC(=O)O)CC(=O)O)c(OCCOc2cc(C(=O)C=[N+]=[N-])ccc2N(CC(=O)O)CC(=O)O)c1 [diazo-4, 1,2-bis(2-bis(carboxymethyl)amino-5-(diazoacetyl)phenoxy)ethane]
[1]; +Ca2+, at λmax
  εmax, +Ca2+: 42.3 10^-3, M^-1 cm^-1
[1]; +Ca2+, dominant peak at longest wavelength
  λmax, +Ca2+: 320 nm
[1]; free (zero Ca2+), at λmax
  εmax, free: 46.0 10^-3, M^-1 cm^-1
[1]; free (zero Ca2+), dominant peak at longest wavelength
  λmax, free: 371 nm
[2]; after photolysis, 0.1-0.15M ionic strength, 20-23° C., read-out: Kd (Ca2+), after photolysis
  Kd: 0.055 µM
[2]; before photolysis, 0.1-0.15M ionic strength, pH 7.0-7.4, 20-23° C., read-out: Kd (Ca2+), before photolysis
  Kd: 89 µM
[2]; complete photolysis
  change in Ca2+ affinity upon photolysis: 1600 fold
[3]
  Kd: 2600 µM
[4]; compared with diazo-2
  quantum yield relative to diazo-2: approximately half that of diazo-2
[4]; saturating [Ca2+]
  Φ quantum efficiency of photolysis, +Ca2+: 0.015
[4]; zero [Ca2+]
  Φ quantum efficiency of photolysis, free: 0.015
[5]; after photolysis
  Photolysis yield (yield of high affinity Ca2+ chelator after photolysis): 88
[5]; complete photolysis, expected
  low-affinity side product on complete photolysis, expected: 19%
[5]; residual absorbance at 355 nm
  low-affinity side product on complete photolysis, measured: 20%

## Cc1ccc(N(CC(=O)O)CC(=O)O)c(OCCOc2cc(C(=O)CO)ccc2N(CC(=O)O)CC(=O)O)c1 [para-(2-hydroxyacetyl) derivative]
[2]; side product after photolysis of diazo-2, from deviation of Hill plot, read-out: dissociation constant of side product
  Kd: ~1 µM
[4]; product of diazo-2 with dilute aqueous acid
  photosensitivity (in words): complete lack of photosensitivity
[5]; hydroxyacetyl derivative, from photolysis of diazo-2, calculated
  amount of side product arising from photolysis: about 10%

## [arg^8 ]-vasopressin: stimulus of the REF52 cell, 50 nM (CYFQNCPRG-NH2; disulfide 1-6; UniProt P01185 20-28, looked up) [reference compound]
[6]
  [Ca2+]i response to stimulation (in words): sharp but transient rise
[6]; before UV
  [Ca2+]i plateau after stimulation: about 200 nM
